From publication PMC7429951 (Journal of Medicinal Chemistry, 2020)

Experiments:
[1] = target: peptidase domain of ColH (ColH-PD) (Hathewaya histolytica, UniProt Q46085); experiment: biochemical; parameters: species or system Clostridium histolyticum
[2] = target: peptidase domain of ColT (ColT-PD) (Clostridium tetani, UniProt Q899Y1); experiment: biochemical; parameters: species or system C. tetani; details: read-out: ColT-PD % inhibition @ 100 μM
[3] = target: T1, collagenase unit of ColQ1 (ColQ1-CU) (Bacillus cereus, UniProt B9J3S4); experiment: biochemical; parameters: species or system B. cereus strain Q1; details: read-out: ColQ1-CU % inhibition @ 100 μM
T1 construct: the collagenase unit of ColQ1 (ColQ1-CU) from B. cereus strain Q1
T1 sequence (B9J3S4 94-765 limits assumed): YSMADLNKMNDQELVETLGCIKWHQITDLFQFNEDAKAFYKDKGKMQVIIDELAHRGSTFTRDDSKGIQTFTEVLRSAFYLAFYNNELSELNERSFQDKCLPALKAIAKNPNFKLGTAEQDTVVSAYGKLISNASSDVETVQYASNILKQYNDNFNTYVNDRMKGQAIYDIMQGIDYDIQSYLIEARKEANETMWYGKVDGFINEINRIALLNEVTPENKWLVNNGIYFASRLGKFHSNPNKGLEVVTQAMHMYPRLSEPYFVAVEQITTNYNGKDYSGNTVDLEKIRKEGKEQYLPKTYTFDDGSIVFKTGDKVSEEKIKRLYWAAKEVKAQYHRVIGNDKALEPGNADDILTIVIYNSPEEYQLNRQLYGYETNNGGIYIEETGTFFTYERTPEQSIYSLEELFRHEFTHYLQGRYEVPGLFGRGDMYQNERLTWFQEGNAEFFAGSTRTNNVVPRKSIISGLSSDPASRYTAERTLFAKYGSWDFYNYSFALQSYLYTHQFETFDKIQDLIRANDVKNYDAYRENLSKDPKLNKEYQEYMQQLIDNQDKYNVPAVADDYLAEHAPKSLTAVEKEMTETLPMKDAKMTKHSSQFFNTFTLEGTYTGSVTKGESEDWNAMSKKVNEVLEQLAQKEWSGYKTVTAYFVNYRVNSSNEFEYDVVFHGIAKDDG

MMP-1 = target: T2, MMP-1 (Homo sapiens, UniProt P03956); experiment: MMP-1 off-target inhibition; type: biochemical; details: read-out: MMP-1 % inhibition @ 100 μM; 100 μM compound
T2 sequence (P03956 100-469): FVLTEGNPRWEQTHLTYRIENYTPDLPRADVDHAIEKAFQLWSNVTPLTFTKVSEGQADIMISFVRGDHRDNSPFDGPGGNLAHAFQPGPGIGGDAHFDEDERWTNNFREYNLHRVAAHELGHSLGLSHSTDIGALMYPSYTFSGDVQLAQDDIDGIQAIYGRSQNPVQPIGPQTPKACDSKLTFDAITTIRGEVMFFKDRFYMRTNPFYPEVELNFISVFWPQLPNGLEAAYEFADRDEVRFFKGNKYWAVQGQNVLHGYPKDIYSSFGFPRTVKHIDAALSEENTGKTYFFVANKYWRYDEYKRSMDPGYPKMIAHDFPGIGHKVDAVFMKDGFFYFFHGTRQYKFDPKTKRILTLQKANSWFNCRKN
Excerpt: (§1) Previously, we described N-aryl mercaptoacetamides with high selectivity for the bacterial over a broad range of human MMPs.[29],[30] MMPs are calcium-dependent zinc metalloproteases that play a pivotal role in numerous biochemical processes in humans.[39],[40] Based on the depth of their S1′ binding pocket, MMPs can be divided into three classes: deep (e.g., MMP-3 and -14), intermediate (e.g., MMP-2 and -8), and shallow (e.g., MMP-1 and -7). With the aim to explore the interactions of our inhibitors with all three pocket types, which could help us to assess potential effects on other not-tested representatives, we chose a panel of six MMPs, comprising two members of each class. In addition, HDAC-3, HDAC-8, and TACE (ADAM-17)—enzymes involved in gene expression and the processing of TNF-α,[41],[42] respectively—were selected as important additional human off-targets.

HDAC-8 = target: T3, HDAC-8 (Homo sapiens, UniProt Q9BY41); experiment: HDAC-8 inhibitor screening kit; type: biochemical
T3 construct: purchased Sigma-Aldrich (Saint Louis, MO)
T3 sequence (Q9BY41 1-377): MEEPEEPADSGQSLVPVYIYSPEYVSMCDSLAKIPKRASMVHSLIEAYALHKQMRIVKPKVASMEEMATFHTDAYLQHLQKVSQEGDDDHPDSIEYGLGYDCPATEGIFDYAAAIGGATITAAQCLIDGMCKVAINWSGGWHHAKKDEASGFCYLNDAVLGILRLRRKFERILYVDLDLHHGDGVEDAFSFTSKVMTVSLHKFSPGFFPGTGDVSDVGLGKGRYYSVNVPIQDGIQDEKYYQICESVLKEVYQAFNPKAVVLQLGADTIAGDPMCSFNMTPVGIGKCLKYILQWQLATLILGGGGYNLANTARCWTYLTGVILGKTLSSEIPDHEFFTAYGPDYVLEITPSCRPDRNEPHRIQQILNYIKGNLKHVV
Excerpt: as §1

ColQ1 = ColQ1 (Bacillus cereus, UniProt B9J3S4); experiment: Ex vivo pig-skin model, hydroxyproline quantification; parameters: species or system B. cereus; details: pig-skin explants, 300 nM ColQ1, defined concentrations of compound, vs control
Chain of ColQ1 (B9J3S4 94-965): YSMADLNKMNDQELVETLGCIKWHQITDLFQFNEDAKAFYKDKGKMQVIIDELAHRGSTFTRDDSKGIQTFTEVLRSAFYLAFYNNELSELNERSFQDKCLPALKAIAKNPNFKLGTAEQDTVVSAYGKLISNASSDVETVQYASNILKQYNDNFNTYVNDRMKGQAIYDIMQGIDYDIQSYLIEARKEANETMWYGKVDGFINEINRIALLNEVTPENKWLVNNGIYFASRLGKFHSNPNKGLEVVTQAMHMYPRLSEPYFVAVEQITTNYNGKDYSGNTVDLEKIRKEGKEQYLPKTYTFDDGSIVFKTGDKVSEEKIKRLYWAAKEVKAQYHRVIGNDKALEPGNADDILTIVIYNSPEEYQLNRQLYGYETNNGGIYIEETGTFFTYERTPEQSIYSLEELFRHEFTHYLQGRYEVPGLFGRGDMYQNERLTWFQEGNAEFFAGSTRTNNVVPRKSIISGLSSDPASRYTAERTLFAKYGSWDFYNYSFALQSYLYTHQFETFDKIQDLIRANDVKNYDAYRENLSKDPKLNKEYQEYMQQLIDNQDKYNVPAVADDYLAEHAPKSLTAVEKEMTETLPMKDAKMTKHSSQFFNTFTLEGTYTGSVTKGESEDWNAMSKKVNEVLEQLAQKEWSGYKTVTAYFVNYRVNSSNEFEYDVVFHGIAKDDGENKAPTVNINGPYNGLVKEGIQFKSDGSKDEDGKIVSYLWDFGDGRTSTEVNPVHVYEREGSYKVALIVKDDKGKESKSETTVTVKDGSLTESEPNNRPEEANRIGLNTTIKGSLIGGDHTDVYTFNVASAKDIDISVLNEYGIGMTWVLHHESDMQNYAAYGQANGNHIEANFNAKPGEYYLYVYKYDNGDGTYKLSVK
Excerpt: We established an ex vivo model based on pig skin to address the impact of our inhibitors on living mammalian tissue and on the contained collagen as the natural substrate of collagenase. We challenged the skin, prepared from the ear of freshly slaughtered pigs, with pure ColQ1 from B. cereus to degrade collagen. We assessed the activity of ColQ1 by quantifying the formation of hydroxyproline as an indicator for collagen turnover (Figure 4). Optimization of the assay conditions for the model consisted of examining different buffer conditions and different protein concentrations (Figures S1 and S2). To evaluate the potential effect of 25 on collagen turnover, we incubated the skin with ColQ1 in the absence and presence of defined concentrations of this compound. […] The good performance of our inhibitors in this model is a sound starting point for their subsequent testing under in vivo conditions. We expect that our inhibitors will accelerate the in vivo healing process, by preventing the distribution of infection. […]
Skin explants were obtained from freshly slaughtered pig ears, which were supplied by a local slaughterhouse. […] Absorbance was measured using a PHERAstar plate reader (BMG Labtech). The absorbance values were converted into the hydroxyproline concentration (μg/mL) using the calibration curve of hydroxyproline as a reference (Figure S3).

in vitro [4] = details: human, HepG2 cells (hepatocellular carcinoma)
in vitro [5] = details: human, A549 cells (lung carcinoma)
LasB = LasB (Pseudomonas aeruginosa, UniProt Q02RJ6); experiment: biochemical; details: LasB IC50, FRET-based assay
Chain of LasB (Q02RJ6 198-498): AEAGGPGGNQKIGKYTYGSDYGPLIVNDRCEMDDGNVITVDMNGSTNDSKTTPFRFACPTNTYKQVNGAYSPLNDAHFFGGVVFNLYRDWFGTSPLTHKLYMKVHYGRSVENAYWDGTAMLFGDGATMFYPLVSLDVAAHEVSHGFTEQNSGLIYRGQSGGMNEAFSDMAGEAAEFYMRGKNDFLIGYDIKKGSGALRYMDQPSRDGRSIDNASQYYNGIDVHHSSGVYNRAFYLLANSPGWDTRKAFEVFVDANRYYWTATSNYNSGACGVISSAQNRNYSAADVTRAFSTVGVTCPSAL

Chain of peptidase domain of ColH (ColH-PD) (Q46085 331-721 limits assumed): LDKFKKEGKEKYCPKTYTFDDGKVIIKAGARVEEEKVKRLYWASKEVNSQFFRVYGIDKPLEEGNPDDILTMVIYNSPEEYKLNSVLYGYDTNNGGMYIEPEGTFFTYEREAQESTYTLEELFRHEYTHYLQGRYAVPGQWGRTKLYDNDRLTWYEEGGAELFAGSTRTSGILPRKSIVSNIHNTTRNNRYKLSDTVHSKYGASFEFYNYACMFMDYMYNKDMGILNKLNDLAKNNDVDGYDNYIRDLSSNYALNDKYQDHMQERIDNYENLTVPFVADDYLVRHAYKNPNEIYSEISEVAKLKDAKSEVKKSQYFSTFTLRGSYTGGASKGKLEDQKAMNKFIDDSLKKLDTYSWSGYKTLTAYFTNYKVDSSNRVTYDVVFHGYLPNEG
Chain of peptidase domain of ColT (ColT-PD) (Q899Y1 340-731 limits assumed): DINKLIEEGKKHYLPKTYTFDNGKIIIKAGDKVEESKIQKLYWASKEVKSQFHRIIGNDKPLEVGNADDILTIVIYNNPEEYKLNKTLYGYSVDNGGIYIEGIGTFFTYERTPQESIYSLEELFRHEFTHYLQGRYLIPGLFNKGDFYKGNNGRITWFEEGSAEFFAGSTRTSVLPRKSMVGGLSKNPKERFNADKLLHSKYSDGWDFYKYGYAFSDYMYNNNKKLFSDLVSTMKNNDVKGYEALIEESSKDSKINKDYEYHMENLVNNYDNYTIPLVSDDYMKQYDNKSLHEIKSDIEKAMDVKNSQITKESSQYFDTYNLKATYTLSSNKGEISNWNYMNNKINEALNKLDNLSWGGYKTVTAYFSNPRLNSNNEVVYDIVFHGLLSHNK

## CC(=O)c1ccc(N2C(=O)CC(S)C2=O)cc1 (centres unmarked) [Compound 25, 1-(4-Acetylphenyl)-3-mercaptopyrrolidine-2,5-dione]
[1]
  IC50: 0.06 ± 0.01 µM
[1]; read-out: ColH-PD % inhibition @ 1 μM
  inhibition at 1 µM: 95%
[1]; read-out: ColH-PD % inhibition @ 100 μM
  inhibition at 100 µM: 96 ± 2%
[2]
  inhibition at 100 µM: 102 ± 3%
[3]
  inhibition at 100 µM: 99 ± 2%
MMP-1
  inhibition at 100 µM: < 10%
HDAC-8
  IC50: > 100 µM
ColQ1
  hydroxyproline released (collagenolytic activity of ColQ1): significantly reduced amount of hydroxyproline released compared to control
In vitro [4]
  IC50: > 100 µM
In vitro [5]
  IC50: > 100 µM
LasB
  IC50: 64 ± 7.5 µM
